Among the data in patent publication US9353150B2, “Substituted pyrazino[1′,2′:1 ,5]pyrrolo[2,3-b]-indole-1,4-diones for cancer treatment” (Massachusetts Institute of Technology, priority 2012, dated 2016) are IC50 values, retold here.

Each structure is given as a SMILES string. Read-outs that look alike come from different tables or passages of the source.

Assay [1] deals with U-937 (hystiocytic lymphoma). As to the kind of experiment: 72-hour IC50 determination for non-adherent cells using MTS. Type of assay: cell-based, human. Conditions: read-out: U-937, 72-hour IC50 (Table E1-1). Here is the method: (§1) Certain synthesized compounds were screened for their ability to induce death in two human cancer cell lines: U-937 (leukemic monocyte lymphoma) and HeLa (cervical cancer).
(§2) Cells were grown in media supplemented with fetal bovine serum (FBS) and antibiotics ([…]). Specifically, experiments were performed using the following cell lines and media compositions: U-937, HeLa, H460, and 786-O (RPMI-1640+10% FBS), and MCF7 (EMEM+10% FBS). Cells were incubated at 37° C. in a 5% CO2, 95% humidity atmosphere.
In a 96-well plate, compounds were pre-added as DMSO stocks in triplicate to achieve a final concentration of 1%. DMSO and cell-free wells served as the live and dead control, respectively. U-937 (5,000 cells/well) cells were distributed in 100 μL media to the compound-containing plate. After 72 hours, cell viability was assessed by adding 20 μL of a PMS/MTS solution (Cory, A. H.; Owen, T. C.; Barltrop, J. A.; Cory, J. G. Cancer Commun. 1991, 3, 207) to each well, allowing the dye to develop at 37° C. until the live control had processed MTS, and reading the absorbance at λ=490 nm. IC50 values were determined from three or more independent experiments using TableCurve (San Jose, Calif.).

The subject of assay [2] is HeLa (cervical carcinoma). In words: 72-hour IC50 determination for adherent cells using sulforhodamine B (SRB). Type of assay: cell-based, human. Conditions: read-out: HeLa, 72-hour IC50 (Table E1-1). As for the experimental part: as §1, §2
Adherent cells (HeLa, H460, 786-O, and MCF7) were added into 96-well plates (5,000 cells/well for HeLa cell line; 2,000 cells/well for H460, 786-O, and MCF7 cell lines) in 100 μL media and were allowed to adhere for 2-3 hours. Compounds were solubilized in DMSO as 100× stocks, added directly to the cells (100 μL final volume), and tested over a range of concentrations in triplicate (1% DMSO final) on a half-log scale. Concentrations tested ranged from […] to 10 μM, depending on the potency of the compound. DMSO and cell-free wells served as the live and dead control, respectively. After 72 hours of continuous exposure, the plates were evaluated using the SRB colorimetric assay as described previously (Vichai, V.; Kirtikara, K. Nature Prot. 2006, 1, 1112). Briefly, media was removed from the plate, and cells were fixed by the addition of 100 μL cold 10% trichloroacetic acid in water. After incubating at 4° C. for an hour, the plates were washed in water and allowed to dry. Sulforhodamine B was added as a 0.057% solution in 1% acetic acid (100 μL), and the plates were incubated at room temperature for 30 minutes, washed in 1% acetic acid, and allowed to dry. The dye was solubilized by adding 10 mM Tris base solution (pH 10.5, 200 μL) and incubating at room temperature for 30 minutes. Plates were read at λ=510 nm. IC50 values were determined from three or more independent experiments using TableCurve (San Jose, Calif.).

The mark [3] stands for this setting: 72-hour exposure, MTS, error is standard deviation of the mean, n ≧ 3.
The mark [4] stands for this setting: 72-hour exposure, SRB, error is standard deviation of the mean, n ≧ 3.
Setting [5] is: Homo sapiens, U-937, 72-hour exposure, MTS, error is standard deviation of the mean, n ≧ 3.
[6] abbreviates: Homo sapiens, HeLa, 72-hour exposure, SRB, error is standard deviation of the mean, n ≧ 3.

By IC50 is commonly meant the concentration that inhibits the measured activity by half. As to `CN1C(=O)[C@]2(O)C[C@]3([C@]45C[C@@]6(O)C(=O)N(C)[C@](C)(O[Si](C)(C)C(C)(C)C)C(=O)N6[C@H]4N(S(=O)(=O)c4ccccc4)c4ccccc45)c4ccccc4N(S(=O)(=O)c4ccccc4)[C@@H]3N2C(=O)[C@@]1(C)O[Si](C)(C)C(C)(C)C` [Compound 23], the IC50 is over 1 µM in assay [1] (setting [3]) and over 10 µM in assay [2] (setting [4]).

For the compound `CN1C(=O)[C@@]2(S)C[C@]3(c4c[nH]c5ccccc45)c4ccccc4N(S(=O)(=O)c4ccccc4)[C@@H]3N2C(=O)[C@H]1O` [Compound 48, C3-(Indol-3′-yl) C11-thiohemiaminal], the IC50 in assay [1] (setting [5]) and in assay [2] (setting [6]) was over 10 µM each time.

In the case of `COCS[C@]12C[C@]3(c4cn(C(=O)OC(C)(C)C)c5ccccc45)c4ccccc4N(S(=O)(=O)c4ccccc4)[C@@H]3N1C(=O)CN(C)C2=O` [Compound 49], the IC50 in assay [1] (setting [3]) and in assay [2] (setting [4]) was over 10 µM throughout.

For the compound `CN1C(=O)[C@]2(O)C[C@]3([C@]45C[C@@]6(O)C(=O)N(C)[C@](C)(O)C(=O)N6[C@H]4N(S(=O)(=O)c4ccccc4)c4ccccc45)c4ccccc4N(S(=O)(=O)c4ccccc4)[C@@H]3N2C(=O)[C@@]1(C)O` [Compound 22], the IC50 was over 1 µM in assay [1] (setting [3]) and over 10 µM in assay [2] (setting [4]).

As to `CC(C)[Si](O[C@@H]1C(=O)N2[C@H]3N(S(=O)(=O)c4ccccc4)c4ccccc4[C@@]3(c3c[nH]c4ccccc34)C[C@@]2(O)C(=O)N1C)(C(C)C)C(C)C` [Compound 57], the IC50 in assay [1] (setting [3]) and in assay [2] (setting [4]) was over 10 µM each time.

Take `CN1CC(=O)N2[C@@H](C[C@]3(Br)c4ccccc4N(S(=O)(=O)c4ccccc4)[C@H]23)C1=O` [Compound 54]: the half-inhibitory concentration (IC50) in assay [1] (setting [5]) and in assay [2] (setting [6]) was over 10 µM each time.

Consider `CN1CC(=O)N2C(CC3(c4c[nH]c5ccccc45)c4ccccc4N(S(=O)(=O)c4ccccc4)C23)C1=O` (centres unmarked) [Compound 59, C3-(indol-3′-yl)-pyrrolidinoindolne], for which the 50% inhibitory concentration (IC50) in assay [1] (setting [3]) and in assay [2] (setting [4]) was over 10 µM each time.

As for `CS[C@H]1C(=O)N2[C@H]3Nc4ccccc4[C@@]3(c3c[nH]c4ccccc34)C[C@]2(SC)C(=O)N1C` [Compound 7, (+)-gliocladin B], the IC50 in assay [1] (setting [3]) and in assay [2] (setting [4]) was over 10 µM each time.

`CC(=O)OC[C@@]1(OC(=O)C(C)C)C(=O)N2[C@H]3Nc4ccccc4[C@@]3([C@]34C[C@]5(SSSC(c6ccccc6)(c6ccccc6)c6ccccc6)C(=O)N(C)[C@](COC(C)=O)(OC(=O)C(C)C)C(=O)N5[C@H]3Nc3ccccc34)C[C@]2(SSSC(c2ccccc2)(c2ccccc2)c2ccccc2)C(=O)N1C` [Compound 20]: the concentration for half-maximal inhibition (IC50) in assay [1] (setting [3]) and in assay [2] (setting [4]) was over 10 µM throughout.

Regarding `COCCOCS[C@H]1C(=O)N2[C@H]3N(S(=O)(=O)c4ccccc4)c4ccccc4[C@@]3(c3cn(C(=O)OC(C)(C)C)c4ccccc34)C[C@]2(S)C(=O)N1C` [Compound 47, C3-(N-Boc-indol-3′-yl) S15-MEM ether], the half-maximal inhibitory concentration (IC50) in assay [1] (setting [3]) and in assay [2] (setting [4]) was over 10 µM throughout.

Regarding `CN1C(=O)C(=O)N2C(=C[C@]3(c4c[nH]c5ccccc45)c4ccccc4N[C@H]23)C1=O` [Compound 52, (+)-Gliocladin C], the IC50 was over 10 µM in assay [1] (Homo sapiens, U-937, 72 h) and over 10 µM in assay [2] (Homo sapiens, HeLa, 72 h).

`CC(C)[Si](O[C@@H]1C(=O)N2C(=C[C@]3(c4c[nH]c5ccccc45)c4ccccc4N(C(=O)C(F)(F)F)[C@H]23)C(=O)N1C)(C(C)C)C(C)C` [Compound 53]: the IC50 in assay [1] (setting [5]) and in assay [2] (setting [6]) was over 10 µM throughout.

For the compound `COCCOCS[C@H]1C(=O)N2[C@H]3N(S(=O)(=O)c4ccccc4)c4ccccc4[C@@]3(c3cn(C(=O)OC(C)(C)C)c4ccccc34)C[C@]2(SCOCCOC)C(=O)N1C` [Compound 42, C3-(N-Boc-indol-3′-yl)bis(S-MEM)ether], the concentration for half-maximal inhibition (IC50) in assay [1] (setting [3]) and in assay [2] (setting [4]) was over 10 µM each time.
